{
  "source": "PubChem BioAssay AID686932",
  "about": "(Sanford-Burnham Center for Chemical Genomics, 2013)",
  "note": "Values joined by “and” are separate entries in the source; they are usually repeats but may differ in a detail not shown here. Identical values can stand only once. Active and inactive are the calls of the source.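 The calls were made as follows: active = IC50 against MMP-2 at or below 100 µM; inactive = the rest.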",
  "data": [
    {"target": "72 kDa type IV collagenase (Homo sapiens) (UniProt P08253)", "sequence (P08253 whole entry, looked up)": "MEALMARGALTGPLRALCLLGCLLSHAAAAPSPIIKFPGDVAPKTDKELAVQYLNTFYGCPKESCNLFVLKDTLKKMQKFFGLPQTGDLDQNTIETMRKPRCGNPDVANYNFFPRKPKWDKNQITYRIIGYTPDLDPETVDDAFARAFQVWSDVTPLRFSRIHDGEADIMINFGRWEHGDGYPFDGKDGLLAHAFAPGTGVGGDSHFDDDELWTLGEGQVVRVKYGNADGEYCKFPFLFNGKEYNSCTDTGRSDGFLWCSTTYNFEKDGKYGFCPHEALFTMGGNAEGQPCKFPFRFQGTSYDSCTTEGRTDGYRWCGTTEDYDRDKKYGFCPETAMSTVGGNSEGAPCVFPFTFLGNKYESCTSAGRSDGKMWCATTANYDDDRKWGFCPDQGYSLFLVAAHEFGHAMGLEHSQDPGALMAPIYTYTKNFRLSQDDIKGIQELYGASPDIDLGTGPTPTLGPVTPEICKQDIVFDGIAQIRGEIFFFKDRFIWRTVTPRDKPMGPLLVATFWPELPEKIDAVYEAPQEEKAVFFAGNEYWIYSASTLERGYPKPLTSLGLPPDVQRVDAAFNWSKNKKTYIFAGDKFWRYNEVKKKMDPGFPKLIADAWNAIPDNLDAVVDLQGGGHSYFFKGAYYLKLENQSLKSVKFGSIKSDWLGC", "experiment": "human MMP-2 protease inhibitors, selectivity check – biochemical, fluorescence, counter-screen for RPN11 inhibitor project, SAR follow-up (AID 686932)", "settings": "recombinant MMP-2, FRET peptide cleavage fluorescence", "values": [
      {"smiles": "COC(=O)[C@@H]1CCCN1C(=O)c1cnc2c(SSc3cccc4cc(C(=O)N5CCC[C@H]5C(=O)OC)cnc34)cccc2c1", "IC50": "> 99 µM (inactive)"},
      {"smiles": "Cc1ccc(C(=O)Sc2cccc3cccnc23)cc1", "IC50": "> 99 µM (inactive)"},
      {"smiles": "CC(C)[C@H](NC(=O)c1cnc2c(SSc3cccc4cc(C(=O)N[C@H](C(=O)O)C(C)C)cnc34)cccc2c1)C(=O)O", "IC50": "> 99 µM (inactive)"},
      {"smiles": "COc1ccc(C(=O)Sc2cccc3cccnc23)cc1F", "IC50": "> 99 µM (inactive)"},
      {"smiles": "COC(=O)C[C@H](NC(=O)c1cnc2c(SSc3cccc4cc(C(=O)N[C@@H](CC(=O)OC)C(=O)OC)cnc34)cccc2c1)C(=O)OC", "IC50": "> 99 µM (inactive)"},
      {"smiles": "CCCc1ccc(C(=O)Sc2cccc3cccnc23)cc1", "IC50": "7.85 µM"},
      {"smiles": "CCOc1ccccc1C(=O)Sc1cccc2cccnc12", "IC50": "17 µM and > 99 µM (inactive)"},
      {"smiles": "COC(=O)[C@H](C)NC(=O)c1cnc2c(SSc3cccc4cc(C(=O)N[C@@H](C)C(=O)OC)cnc34)cccc2c1", "IC50": "> 99 µM (inactive)"},
      {"smiles": "O=C(Sc1cccc2cccnc12)c1ccccc1", "IC50": "21.8 µM"},
      {"smiles": "N#Cc1cccc(C(=O)Sc2cccc3cccnc23)c1", "IC50": "> 99 µM (inactive)"},
      {"smiles": "O=C(Sc1cccc2cccnc12)c1c(Cl)cccc1Cl", "IC50": "8.92 µM"},
      {"smiles": "O=C(Sc1cccc2cccnc12)c1ccc([N+](=O)[O-])cc1", "IC50": "> 99 µM (inactive)"},
      {"smiles": "COc1ccc(C(=O)Sc2cccc3cccnc23)cc1", "IC50": "16.2 µM"},
      {"smiles": "O=C(Sc1cccc2cccnc12)c1ccccc1Br", "IC50": "> 99 µM (inactive)"},
      {"smiles": "CC(C)Cc1ccc(C(=O)Sc2cccc3cccnc23)cc1", "IC50": "> 99 µM (inactive)"},
      {"smiles": "COc1ccccc1C(=O)Sc1cccc2cccnc12", "IC50": "> 99 µM (inactive)"},
      {"smiles": "O=C(Sc1cccc2cccnc12)c1ccc(F)c(F)c1", "IC50": "> 99 µM (inactive)"},
      {"smiles": "CC[C@@H](C)[C@H](NC(=O)c1cnc2c(SSc3cccc4cc(C(=O)N[C@H](C(=O)OC)[C@@H](C)CC)cnc34)cccc2c1)C(=O)OC", "IC50": "> 99 µM (inactive)"},
      {"smiles": "CC[C@@H](C)[C@H](NC(=O)c1cnc2c(SSc3cccc4cc(C(=O)N[C@H](C(=O)O)[C@H](C)CC)cnc34)cccc2c1)C(=O)O", "IC50": "20.2 µM"},
      {"smiles": "CC(C)C[C@H](NC(=O)c1cnc2c(SSc3cccc4cc(C(=O)N[C@@H](CC(C)C)C(=O)O)cnc34)cccc2c1)C(=O)O", "IC50": "9.21 µM"},
      {"smiles": "O=C(Sc1cccc2cccnc12)c1ccccc1OC(F)(F)F", "IC50": "> 99 µM (inactive)"},
      {"smiles": "N#Cc1ccc(C(=O)Sc2cccc3cccnc23)cc1", "IC50": "3.38 µM"},
      {"smiles": "O=C(Sc1cccc2cccnc12)c1ccccc1I", "IC50": "7.06 µM"},
      {"smiles": "O=C(Sc1cccc2cccnc12)C1CCCCC1", "IC50": "20.5 µM"},
      {"smiles": "CC(C)(C)OC(=O)CCNC(=O)c1cnc2c(SSc3cccc4cc(C(=O)NCCC(=O)OC(C)(C)C)cnc34)cccc2c1", "IC50": "> 99 µM (inactive)"},
      {"smiles": "O=C(O)[C@@H]1CCCN1C(=O)c1cnc2c(SSc3cccc4cc(C(=O)N5CCC[C@H]5C(=O)O)cnc34)cccc2c1", "IC50": "16.3 µM"},
      {"smiles": "O=C(Sc1cccc2cccnc12)c1ccccc1F", "IC50": "> 99 µM (inactive)"},
      {"smiles": "O=C(Sc1cccc2cccnc12)c1cccc2ccccc12", "IC50": "29.3 µM"},
      {"smiles": "O=C(Sc1cccc2cccnc12)c1ccc(F)cc1F", "IC50": "9.07 µM"},
      {"smiles": "COC(=O)[C@H](C)NC(=O)c1ccnc2c(SSc3cccc4c(C(=O)N[C@@H](C)C(=O)OC)ccnc34)cccc12", "IC50": "> 99 µM (inactive)"},
      {"smiles": "O=C(Sc1cccc2cccnc12)c1cccc(C(F)(F)F)c1", "IC50": "> 99 µM (inactive)"},
      {"smiles": "COC(=O)[C@H](C)N(C)C(=O)c1cnc2c(SSc3cccc4cc(C(=O)N(C)[C@@H](C)C(=O)OC)cnc34)cccc2c1", "IC50": "> 99 µM (inactive)"},
      {"smiles": "COc1cccc(C(=O)Sc2cccc3cccnc23)c1", "IC50": "> 99 µM (inactive)"},
      {"smiles": "O=C(Sc1cccc2cccnc12)c1ccc2c(c1)OCO2", "IC50": "> 99 µM (inactive)"},
      {"smiles": "COC(=O)[C@@H](NC(=O)c1cnc2c(SSc3cccc4cc(C(=O)N[C@H](C(=O)OC)C(C)C)cnc34)cccc2c1)C(C)C", "IC50": "> 99 µM (inactive)"},
      {"smiles": "COC(=O)[C@H](CO)NC(=O)c1cnc2c(SSc3cccc4cc(C(=O)N[C@@H](CO)C(=O)OC)cnc34)cccc2c1", "IC50": "> 99 µM (inactive)"},
      {"smiles": "Cc1cccc(C(=O)Sc2cccc3cccnc23)c1", "IC50": "38.5 µM"},
      {"smiles": "O=C(Sc1cccc2cccnc12)c1ccccc1Cl", "IC50": "> 99 µM (inactive)"},
      {"smiles": "C[C@@H](C(=O)O)N(C)C(=O)c1cnc2c(SSc3cccc4cc(C(=O)N(C)[C@@H](C)C(=O)O)cnc34)cccc2c1", "IC50": "> 99 µM (inactive)"},
      {"smiles": "COC(=O)c1cnc2c(SSc3cccc4cc(C(=O)OC)cnc34)cccc2c1", "IC50": "24 µM"},
      {"smiles": "O=C(Sc1cccc2cccnc12)c1ccccc1[N+](=O)[O-]", "IC50": "inactive"},
      {"smiles": "O=C(O)c1cnc2c(SSc3cccc4cc(C(=O)O)cnc34)cccc2c1", "IC50": "> 99 µM (inactive)"},
      {"smiles": "O=C(Sc1cccc2cccnc12)c1ccc(C(F)(F)F)cc1", "IC50": "> 99 µM (inactive)"},
      {"smiles": "COC(=O)[C@H](CC(C)C)NC(=O)c1cnc2c(SSc3cccc4cc(C(=O)N[C@@H](CC(C)C)C(=O)OC)cnc34)cccc2c1", "IC50": "> 99 µM (inactive)"},
      {"smiles": "COc1ccc(C(=O)Sc2cccc3cccnc23)cc1OC", "IC50": "> 99 µM (inactive)"},
      {"smiles": "O=C(Sc1cccc2cccnc12)c1cccc(Cl)c1", "IC50": "> 99 µM (inactive)"},
      {"smiles": "Cc1ccccc1C(=O)Sc1cccc2cccnc12", "IC50": "> 99 µM (inactive)"},
      {"smiles": "O=C(Sc1cccc2cccnc12)c1ccc(F)cc1", "IC50": "> 99 µM (inactive)"}
    ]}
  ]
}
